Entries after “also recorded” stand apart in the source; their conditions may differ. Like-named read-outs stand apart in the source and are kept apart here.
Experiments:
[1] = Study 1 MAD part: plasma and urine pharmacokinetics, once daily for 14 days; assay type: in vivo, human; conditions: for AUC / Cmax / Tmax / half-life: male, human, plasma, oral; for AUC: dosing interval 24 hours; for Tmax: median (minimum-maximum)
Procedure: GLPG1205 or matching placebo were administered as an oral nanosuspension in the morning in a fed condition as an outpatient. For both the single ascending doses (SADs) and multiple ascending doses (MADs) parts of the study, subjects attended a screening visit (21 to 2 days before first study drug administration) and a follow‐up visit (7 to 10 days after the last dose).
In the MAD part of study 1, 24 healthy male subjects in 3 cohorts (C, D, and E; n = 8 each) each received GLPG1205 or matching placebo once daily for 14 days. Cohorts C, D, and E received GLPG1205 50 mg once daily or matching placebo, GLPG1205 100 mg once daily or matching placebo, and GLPG1205 200 mg once daily or matching placebo, respectively. Within a cohort, subjects were randomized to receive GLPG1205 or matching placebo in a 3:1 ratio. An interval of at least 6 days was enforced between cohorts. Subjects were kept in‐house from the evening of day –1 until ≈26 hours after first dosing (morning of day 2), and from the evening of day 13 to the morning of day 15. Administration of the study drug was performed daily at the clinical pharmacology unit.
In the SAD part of study 1, blood samples (2 mL) for PK assessments were obtained before dosing and at multiple time points on the day of study drug administration (before dosing and 0.5, 1, 2, 4, 6, 8, and 12 hours after dosing) and at 24, 48, and 72 hours after dosing. The predose sample for the next dose level was also used in PK analysis (168 hours after dosing). […] In the MAD part of study 1, blood samples (2 mL) were obtained on days 1, 2, 4, 5, 6, 8, 10, 12, 14, 15, 16, 17, and 18 and at follow‐up (approximately 7 to 10 days after the last dose). These PK blood samples were taken after dosing (1, 2, 4, 6, 8, 12, and 24 hours) on day 1; before dosing on days 4, 6, 8, and 10; and after dosing (1, 2, 4, 6, 8, 12, 24, 72, and 96 hours) on day 14. The following additional PK blood samples were also taken: cohort C, before dosing on day 5; and cohorts D and E, before dosing on day 12. Urine samples were obtained from fractions collected over 6‐ or 12‐hour periods after dosing on days –1, 1, 2, 13, 14, and 15; samples obtained on days –1 and 13 were for cytochrome P450 (CYP) induction analysis only. In study 2, blood samples (2 mL) were obtained on days 1, 2, 5, 7, 10, 14, 15, 17, and 20 and at follow‐up (approximately 21 days after end of study medication administration). Blood samples were taken before dosing and at 1, 2, 4, 6, 8, 12, and 24 hours after drug administration on days 1 and 14 and before dosing on other sampling days.
Blood samples were immediately chilled (ice bath), and the plasma was separated by centrifugation (4°C for 10 minutes at ≈1500 g) within 30 minutes of blood collection.
GLPG1205 plasma concentrations were determined using a validated liquid chromatography with tandem mass spectrometry method. After a protein precipitation with methanol, a chromatographic separation was performed on a Kinetex C18 column (50×3.0 mm, 2.6 μm; Phenomenex, Torrance, California) set at 40°C by using a Nexera high‐performance liquid chromatography (HPLC) system (Shimadzu, Kyoto, Japan) or an Infinity HPLC system (Agilent Technologies, Diegem, Belgium) in isocratic elution mode. A QTRAP6500, QTRAP4000, or API4000 mass spectrometer (AB Sciex, Nieuwerkerk aan den Ijssel, The Netherlands) equipped with a TurboIonSpray probe operated in the multiple reaction monitoring in positive mode was used for quantification. The calibration curves in plasma were linear over the range of 1 to 1000 ng/mL with 1/x^2 as weighting factor. The limit of quantification of the assay in the plasma samples was set at 1 ng/mL.
GLPG1205 concentrations in urine fractions were determined by using a qualified liquid chromatography with tandem mass spectrometry method derived from the plasma method. […]

CYP1A2 = system: CYP1A2; parameters: method as in data on file at Galapagos, 8, 9; conditions: 100 mg once daily, healthy male subjects; ref data on file at Galapagos, 8, 9; cited from earlier work
[2] = system: cytochrome P450 (CYP) 3A4 and CYP2C19; conditions: background statement, no reference given; cited from earlier work
[3] = 50 mg, 50 mg once daily, day 1, mean (CV%)
[4] = 50 mg, 50 mg once daily, day 14, mean (CV%)
[5] = 100 mg, 100 mg once daily, day 1, mean (CV%)
[6] = 100 mg, 100 mg once daily, day 14, mean (CV%)
[7] = 200 mg, 200 mg once daily, day 1, mean (CV%)

With `O=c1nc(OC[C@@H]2COCCO2)cc2n1CCc1cc(C#CC3CC3)ccc1-2` [GLPG1205, 9‐cyclopropylethynyl‐2‐((S)‐1‐[1,4]dioxan‐2‐ylmethoxy)‐6,7‐dihydropyrimido[6,1‐a]isoquinolin‐4‐one] the “Ae(Τ), amount excreted in urine over 24 hours” value (shortened to “Ae(Τ) … over 24 hours”) ([1]; 50 mg once daily, day 1, mean (CV%)) was 0.0785 (22.9) % dose, the “Ae(Τ) … over 24 hours” value ([1]; 50 mg once daily, day 14, mean (CV%), N = 5) was 0.428 (22.0)^N = 5 % dose and the “Ae(Τ) … over 24 hours” value ([1]; 100 mg once daily, day 1, mean (CV%), N = 4) was 0.0746 (30.1)^N = 4 % dose. The “Ae(Τ) … over 24 hours” value ([1]; 100 mg once daily, day 14, mean (CV%)) was 0.480 (27.2) % dose, the “Ae(Τ) … over 24 hours” value ([1]; 200 mg once daily, day 1, mean (CV%)) was 0.123 (27.0) % dose and the “dose-proportionality of steady-state exposure (Cmax and AUCΤ)” value ([1]; 50 to 100 mg once daily) was “increased in proportion with the dose; also recorded: increased proportionally with the dose”. For the same compound, the “excretion of unchanged GLPG1205 in urine over 24 hours” value ([1]; at steady state on day 14) was < 0.48 % of the administered dose, the AUC [1, 3] was 7580 ng·h/mL and the Cmax [1, 3] was 469 ng/mL. For the same compound, the Tmax ([1]; 50 mg, 50 mg once daily, day 1) was 3 h, the AUC [1, 4] was 41300 ng·h/mL and the Cmax [1, 4] was 2050 ng/mL. For the same compound, the half-life ([1]; 50 mg, 50 mg once daily, day 14, mean (CV%), read-out: t1/2,λz (converted)) was 76.7 h, the Tmax ([1]; 50 mg, 50 mg once daily, day 14) was 4 h and the AUC [1, 5] was 14400 ng·h/mL. For the same compound, the Cmax [1, 5] was 875 ng/mL, the Tmax ([1]; 100 mg, 100 mg once daily, day 1) was 4 h and the AUC [1, 6] was 82700 ng·h/mL. It also gave a Cmax [1, 6] of 3910 ng/mL, a half-life ([1]; 100 mg, 100 mg once daily, day 14, mean (CV%), read-out: t1/2,λz (converted)) of 88.6 h and a Tmax ([1]; 100 mg, 100 mg once daily, day 14) of 4 h. The AUC [1, 7] was 42900 ng·h/mL, the Cmax [1, 7] was 2450 ng/mL and the Tmax ([1]; 200 mg, 200 mg once daily, day 1) was 3 h. For the same compound, the Cmax ([1]; 200/150 mg once daily (150 mg as of day 8), day 14, n = 3, mean (CV%)) was 8900 ng/mL, the AUC ([1]; 200/150 mg once daily, day 14, n = 3, mean (CV%)) was 195000 ng·h/mL and the half-life ([1]; 200/150 mg once daily, day 14, n = 3, mean (CV%), read-out: t1/2,λz (converted)) was 141 h. The Tmax ([1]; 200/150 mg once daily, day 14, n = 3) was 12 h, the half-life ([1]; once-daily dosing for 14 days, read-out: t1/2,λz range) was 76.7 to 141 h and the “time to steady state in plasma concentrations” value ([1]; once-daily dosing for 14 days, irrespective of dose (by day 10)) was 9 dosing days. For the same compound, the “effect on exposure of CYP1A2” value (CYP1A2) was “did not affect the exposure” and the “main enzymes involved in GLPG1205 metabolism” value [2] was “cytochrome P450 (CYP) 3A4 and CYP2C19”.
